Laboratory results taken from patent publication US12611432B2 (priority 2017, dated 2026).

How the values were obtained:
[1] = test system: PTEN KO orthotopic tumors; assay: FTY720 blockade of T cell recruitment in PTEN KO tumor-bearing mice; type: in vivo
Experimental: Survival endpoint was defined by the appearance of hemorrhagic abdominal ascites and/or decreased grooming, ambulation, or piloerection. Volume of all tumor experiments was calculated using caliper measurements at π/6×L×W×H, where L is length of longest axis of the tumor, and W and H are the perpendicular width and height, respectively.
For all in vivo experiments, CP1 was administered intra-urethrally on day 8 post-tumor injection. […]
The Ability of CP1 to Potentiate PD-1 Blockade is Partially Dependent on Increased TIL Recruitment To determine if CP1's ability to recruit lymphocytes into the tumor is necessary for its proven synergy with PD-1 blockade, fingolimod (FTY720), a sphingosine-1 phosphate mimetic that blocks egress of T cells from the lymph nodes into peripheral tissues, was administered. PTEN KO orthotopic tumor-bearing mice were treated with CP1 and anti-PD-1, with the addition of FTY720 administration beginning immediately before CP1 administration, to specifically block CP1-induced T cell infiltration into the tumor without inhibiting the quantity or function of the baseline TILs present in these tumors.

Myc-CaP cells = type: cell-based, murine; settings: 1 μM mitoxantrone, live or heat killed CP1 MOI 10, 24 or 72 hours
Experimental: (a) LDH level, as a measure of cell death, from CP1 and Myc-CaP co-culture, performed in triplicates. (b-i) Myc-CaP cell were co-cultured with Mx, CP1(MOI 1), or MG1655 (MOI 1) (b, d, g) in normal media or (c, e, f, h, i) with gentamicin (+ G) added after 2 hours. (b, c) ICD was measured via HMGB1 (ELISA, 72 hours), ATP (luminescence assay, 72 hours), and calreticulin (flow cytometry, 24 or 72 hours), performed in biological triplicates, technical duplicates. (d-f) Caspase 3/7 activity (luminescence assay) was measured at (d, e) 6 hours or (f) 24 hours, (d) normalized to cell count (MTT assay), performed in sextuplicates. (g, h) Early stage apoptosis (Annexin V^+PI^-) and late stage apoptosis (Annexin V+PI+) were determined by flow cytometry after 24 hours, performed in triplicates. (i) Western blot analysis of phosphorylated and total MLKL, RIP1, RIP3, full length and cleaved PARP, and β-actin after 24 hours, performed in triplicates.
For indicated in vitro assays, CP1 was heat killed at 70° C. for 45 minutes. […] Additionally, supernatant was assessed for lactate dehydrogenase (LDH) levels as a measure of cell death (CytoTox 96 Non-Radioactive Cytotoxicity Assay, Promega). […] Cells counts were taken at the times of supernatant collection, which were frozen at −80° C. until use for quantifying secreted ATP (Bioluminescent Assay Kit, Sigma) and HMGB1 (ELISA, Tecan Trading).

[2] = test system: castration-resistant prostate cancer (CRPC); settings: monotherapy, patients with CRPC; cited from earlier work

CCCCCCCCc1ccc(CCC(N)(CO)CO)cc1 [FTY720, Fingolimod]
tumor volume, mean [1]: 1394 mm^3

O=C1c2c(O)ccc(O)c2C(=O)c2c(NCCNCCO)ccc(NCCNCCO)c21 [mitoxantrone]
ICD markers: secreted HMGB1, secreted ATP, cell surface calreticulin (Myc-CaP cells): elevated

ipilimumab
overall survival (OS) [2]: no improvement in overall survival (OS)

nivolumab
overall survival (OS) [2]: no improvement in overall survival (OS)
